# Source: patent publication US5413915A (priority 1991, dated 1995)
# Marks after values point to notes of the source that are not given here.
# Key:
# [1] = in vivo; cited from earlier work
# Salmonella typhimurium = details: cited from earlier work
# [2] = in vivo; cited from earlier work; remark: listed apart in the source
# rat liver microsomes = type: biochemical; parameters: unit not given here
Compound,Teratogen Activity [1],Mutagenicity (Salmonella typhimurium),Tumorigen Activity [2],"Detector Response, threshold dose (rat liver microsomes)","Tumorigen Activity, assignment based on NCI/NTP carcinogenesis bioassay results [2]","Tumorigen Activity, assignment based on IARC reports [2]",Carcinogenic Status [2]
Magnesium(II),-,-,-,,,,
Oc1ccc2ccccc2c1 [2-Naphthol],-,,-,20,,,
Cyanacrylate [Cyanacrylate (ind.)],-,-,-,,,,
"CNC(=O)Oc1cc(C)c(N(C)C)c(C)c1 [Mexacarbate (ind.), Mexacarbate]",-,-,+^b,,-,,
[La+3] [Lanthanum(III)],-,-,-,5,,,
Cn1c(=O)c2[nH]cnc2n(C)c1=O [Theophylline],+,,-,,,,
S=C=S [CS2],+,+,-,,,,
Copper(II),+,-,+/-,5,,,
"CCc1cccc(C)c1N(C(=O)CCl)C(C)COC (stereo not drawn) [Metolachlor (ind.), Metolachlor]",-,+,-,,,,
CCN(CC)N=O [Diethylnitrosamine],+,+,+,0.1-1,,,
"CNC(=O)ON=C(C)SC [Methomyl (ind.), Methomyl]",-,-,-,,,,
Cc1cccc(O)c1 [m-Cresol],-,-,-,2,,,
CCOC(C)=O [Ethyl Acetate],-,-,-,,,,
OC[C@@H](O)[C@@H](O)[C@H](O)[C@H](O)CO [Mannitol],-,-,-,,,,
"C[n+]1ccc(-c2cc[n+](C)cc2)cc1 [Paraquat (ind.), Paraquat]",+,+,-,,,,
CCO [Ethanol],+,-,-,,,,
"O=S(=O)(c1ccc(Cl)cc1)c1cc(Cl)c(Cl)cc1Cl [Tetradifon (ind.), Tetradifon]",-,-,-,,,,
[Ca+2] [Calcium(II)],-,-,+/-,10,,,
"CCOP(=S)(OCC)Oc1nc(Cl)n(C(C)C)n1 [Isozofos (ind.), Isozofos]",-?,-?,-?,,,,
"CCNc1nc(Cl)nc(NC(C)(C)C#N)n1 [Cyanazine (ind.), Cyanazine]",-,+,-,,,,
[Cl-].[Na+] [NaCl],-,-,-,,,,
"Lecithin [Lecithin, fresh]",-,-,-,,,,

Compound,Teratogen Activity [1],Mutagenicity (Salmonella typhimurium),Tumorigen Activity [2],"Detector Response, threshold dose (rat liver microsomes)","Tumorigen Activity, assignment based on NCI/NTP carcinogenesis bioassay results [2]","Tumorigen Activity, assignment based on IARC reports [2]",Carcinogenic Status [2]
c1cnc2c(c1)ccc1cccnc12 [o-Phenanthroline],-,-,-,,,,
CCCCCC [n-Hexane],-,-,-,,,,
"CNC(=O)Oc1ccccc1OC(C)C [Propoxur (ind.), Propoxur]",-,-,-,,,,
O=C(O)CC(O)(CC(=O)O)C(=O)O [Citrate],-,,-,,,,
C[S+](C)[O-] [Dimethylsulfoxide],+,-,-,,,,
CC(C)O [2-Propanol],-,-,-,,,+,
CCC1(CC)C(=O)NC(=O)NC1=O [Barbital],-,-,-,,,,
NC(=O)CI [Iodoacetamide],-,,+,0.1,,,
ClC(Cl)=C(Cl)Cl [Tetrachloroethylene],+,+,+,,,,
"O=c1cc(-c2ccccc2)oc2ccc3ccccc3c12 [5,6-Naphthoflavone]",-,-,-,,,,
Cc1cc(-c2cc(C)c(N)c(C)c2)cc(C)c1N [Tetramethylbenzidine],-,-,-,,,,
OCC(O)CO [Glycerol],-,,-,,,,
"COc1c(Cl)ccc(Cl)c1C(=O)O [Dicamba (ind.), Dicamba]",-,+,-,,,,
"Lecithin [Lecithin, oxidized]",-,+,+,,,,
NC(N)=O [Urea],-,-,+,,,,
"CCOP(=S)(NC(C)C)Oc1ccccc1C(=O)OC(C)C (stereo not drawn) [Isofenphos (ind.), Isofenphos]",-,-,-,,,,
CCN(CC)CC [Triethylamine],-,-,-,,,,
"O=C(O)COc1ccc(Cl)cc1Cl [2,4-D]",+,-,,,-,+,
C[n+]1ccc(-c2cc[n+](C)cc2)cc1 [Methyl viologen],+,+,+,,,,
C=CC(N)=O [Acrylamide],-,,+,0.2,,,
"BrCCBr [1,2-Dibromoethane]",-,+,+,,,,
"CC(C)C(C(=O)OC(C#N)c1cccc(Oc2ccccc2)c1)c1ccc(Cl)cc1 (stereo not drawn) [Sumicidin (ind.), Sumicidin]",-?,,-?,0.5,,,

Compound,Teratogen Activity [1],Mutagenicity (Salmonella typhimurium),Tumorigen Activity [2],"Detector Response, threshold dose (rat liver microsomes)","Tumorigen Activity, assignment based on NCI/NTP carcinogenesis bioassay results [2]","Tumorigen Activity, assignment based on IARC reports [2]",Carcinogenic Status [2]
"CCc1cccc(CC)c1N(COC)C(=O)CCl [Alachlor (ind.), Alachlor]",-,-,-,,,,
CCCCCCCCCCCCOS(=O)(=O)[O-].[Na+] [Sodium laurylsulfate],-,-,-,,,,
"O=S(=O)(O)CCCN1CCOCC1 [MOPS Buffer, morpholinopropanesulfonic acid]",-?,-?,-?,,,,
CO [Methanol],+,-,-,,,,
O=S(=O)(F)Cc1ccccc1 [Phenylmethylsulfonyl fluoride],-,-,-,,,,
O=[O+][O-] [Ozone],+,-,+^b,,,,
"NC(CO)(CO)CO [TRIS Buffer, tris(hydroxymethyl-)aminomethane]",-,-,-,,,,
"CNC(=O)Oc1cccc2ccccc12 [Carbaryl (ind.), Carbaryl]",+,,+,,,,
O=C1O[C@H]([C@@H](O)CO)C(O)=C1O [Ascorbate],+,+,-,,,,Negative
ClC(Cl)Cl [CHCl3],+,+,+,,,,
Triton X-100,-,-,-,,,,
O=C(O)CN(CCN(CC(=O)O)CC(=O)O)CC(=O)O [EDTA],+,-,-,,,,
Oc1ccc(-c2ccccc2)cc1 [p-Hydroxybiphenyl],-?,-,+,,,,
CCCCO [1-Butanol],-,-,-,,,,
ClC1=C(Cl)[C@]2(Cl)[C@@H]3[C@@H]4C[C@@H]([C@H]5O[C@@H]45)[C@@H]3[C@@]1(Cl)C2(Cl)Cl [Dieldrin],+,+,+^e,,,,
c1ccc2ccccc2c1 [Naphthalene],+,,+/-,,,,
CN(C)C=O [Dimethylformamide],-,+,-,,,,
Cc1ccccc1 [Toluene],+,,-,,,,
"CNC(=O)Oc1cccc2c1OC(C)(C)C2 [Carbofuran (ind.), Carbofuran]",-,+,-,,,,
O=C(O)COc1ccccc1 [Phenoxyacetate],-,-,-,,,,
"CCNc1nc(Cl)nc(NCC)n1 [Simazine (ind.), Simazine]",+,-,+^e,,,,
O=C(O)CN(CC(=O)O)CC(=O)O [Nitrilotriacetate],+,-,+,,,,
